According to PubChem BioAssay (NCI):
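Briefly, cells in 96-well plates were exposed to five compound concentrations for 48 h, and endpoints were estimated by linear interpolation. Definition used: TGI = concentration required for complete inhibition of growth.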

Assays:
Experiment in all cases: growth of human tumour cells (NCI), 48 h
[1] = test system: UO-31 renal
[2] = test system: OVCAR-4 ovarian
[3] = test system: HCT-15 colon
[4] = test system: SN12C renal
[5] = test system: HCT-116 colon
[6] = test system: RPMI-8226 leukemia
[7] = test system: NCI-H23 lung
[8] = test system: CCRF-CEM leukemia
[9] = test system: HT29 colon
[10] = test system: IGROV1 ovarian
[11] = test system: XF 498 CNS
[12] = test system: HOP-18 NSCLC
[13] = test system: TK-10 renal
[14] = test system: OVCAR-5 ovarian
[15] = test system: HOP-92 NSCLC
[16] = test system: OVCAR-8 ovarian
[17] = test system: COLO 205 colon
[18] = test system: HOP-62 NSCLC
[19] = test system: A549 NSCLC
[20] = test system: M19-MEL melanoma
[21] = test system: U251 CNS
[22] = test system: RXF 393 renal
[23] = test system: SNB-78 CNS
[24] = test system: EKVX NSCLC
[25] = test system: SF-268 CNS
[26] = test system: ACHN renal
[27] = test system: NCI-H522 lung
[28] = test system: SNB-19 CNS
[29] = test system: MOLT-4 leukemia
[30] = test system: SK-MEL-5 melanoma
[31] = test system: RXF-631 renal
[32] = test system: SNB-75 CNS
[33] = test system: DMS 114 small cell lung
[34] = test system: 786-0 renal
[35] = test system: SK-MEL-28 melanoma
[36] = test system: HL-60(TB) leukemia
[37] = test system: SK-MEL-2 melanoma
[38] = test system: KM20L2 colon
[39] = test system: UACC-257 melanoma
[40] = test system: SW-620 colon
[41] = test system: SF-295 CNS
[42] = test system: UACC-62 melanoma
[43] = test system: K-562 leukemia
[44] = test system: LXFL 529 NSCLC
[45] = test system: HCC-2998 colon
[46] = test system: MALME-3M melanoma
[47] = test system: SK-OV-3 ovarian
[48] = test system: KM12 colon
[49] = test system: SR leukemia
[50] = test system: NCI-H226 lung
[51] = test system: NCI-H460 lung
[52] = test system: LOX IMVI melanoma
[53] = test system: A498 renal
[54] = test system: OVCAR-3 ovarian
[55] = test system: M14 melanoma
[56] = test system: SF-539 CNS
[57] = test system: DLD-1 colon
[58] = test system: CAKI-1 renal
[59] = test system: DMS 273 small cell lung

Measured: TGI

C/C(=N\NC(=S)NC(CCC(=O)O)C(=O)O)c1cnccn1 (centres undefined)
not listed: [58] | [59]
> 100 µM: all other assays above

COc1ccc2c(c1)[n+](=O)c(C(=O)C/C(=N/NC(=O)C[N+](C)(C)C)C(=O)Nc1cccc(C)c1C)c(C)n2O
not listed: [8] | [11] | [13] | [29] | [30] | [36] | [49] | [52]
> 100 µM: all other assays above

COC(=O)C1C(=O)O[C@@H](c2ccc(OC)c(OC)c2OC)C1C(=O)OC (mixture of isomers)
not listed: [12] | [37]
> 100 µM: all other assays above

CC(=O)OCC1OC(OCc2ccccc2)C(Br)C(OC(C)=O)C1OC(C)=O (centres undefined)
not listed: [1] | [24] | [32] | [33] | [37] | [47]
> 100 µM: all other assays above

CCOC(=O)C(/C(=N\NC(=O)OC)C(=O)Nc1cc(OC)ccc1OC)c1cnc2ccccc2n1 (centres undefined)
not listed: [14] | [28] | [29] | [31] | [37] | [38] | [48] | [54] | [59]
> 100 µM: all other assays above

C[C@@H]1O[C@]2(O)[C@@H]3CCCN3S(=O)(=O)CCN2C1=O
not listed: [33] | [37] | [59]
> 100 µM: all other assays above

COc1ccccc1-n1c(N)c2c(C)c(-c3ccccc3)[nH]c2nc1=S
not listed: [9] | [10] | [22] | [23] | [24] | [25] | [31] | [41] | [47]
> 100 µM: all other assays above
